Assay results published in US8735584B2 (Merck Patent GmbH, priority 2008, dated 2014).

Each compound was assayed against T1, GST-Aurora A (Homo sapiens, UniProt O14965) (assay: Aurora A IC50, Caliper LC3000 mobility shift assay). Conditions: LC3000 method; 15 uM ATP (the KM value); read-out: Aurora Kinase A Activity (IC50).
T1 construct: N-terminal GST fusion with full length Aurora A (1-403 amino acids); purchased Carna Biosciences 05-101
T1 sequence (O14965 1-403): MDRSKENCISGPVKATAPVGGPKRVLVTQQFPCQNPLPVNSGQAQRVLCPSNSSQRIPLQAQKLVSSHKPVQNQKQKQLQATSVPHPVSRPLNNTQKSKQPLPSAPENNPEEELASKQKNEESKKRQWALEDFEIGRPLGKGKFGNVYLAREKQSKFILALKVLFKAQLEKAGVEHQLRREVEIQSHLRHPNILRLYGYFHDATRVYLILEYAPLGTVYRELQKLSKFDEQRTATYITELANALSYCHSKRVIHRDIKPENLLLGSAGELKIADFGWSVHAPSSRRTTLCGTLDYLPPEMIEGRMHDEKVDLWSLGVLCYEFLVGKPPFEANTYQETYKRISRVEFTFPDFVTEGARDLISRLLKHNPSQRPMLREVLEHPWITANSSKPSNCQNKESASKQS
Format: biochemical
How it was run: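 GST-tagged full-length Aurora A (0.067 ng/ul) with 15 uM ATP (KM) and 1 uM FITC-LRRASLG peptide in 100 mM HEPES pH 7.5, 1 mM MgCl2, 1 mM DTT, Brij-35; 90 min at 25 C, EDTA stop. Off-chip mobility shift read of substrate-to-product conversion; IC50 from sigmoidal dose-response.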

| Structure (SMILES) | IC50 [nM] |
| --- | --- |
| O=C(Cn1cc(Nc2ccnc3[nH]c(=O)c4ccccc4c23)cn1)Nc1ccc(C(F)(F)F)cc1 [Compound 431] | > 100 |
| CN(C)CCNC(=O)c1cccc2c1c(=O)[nH]c1nccc(Nc3ccc(NC(=O)c4ccc(F)cc4C(F)(F)F)cc3)c12 [Compound 440, 1-[4-(4-Fluoro-2-trifluoromethyl-benzoylamino)-phenylamino)-6-oxo-5,6-dihydro-benzo[c][1,8]naphthyridin-7-carboxylic acid 2-dimethylamino-ethyl amide] | < 11 |
| CN(C)CCCNC(=O)c1cccc2c1c(=O)[nH]c1nccc(Nc3ccc(NC(=O)c4ccc(F)cc4C(F)(F)F)cc3)c12 [Compound 441] | < 11 |
| CCN(Cc1ccccc1)c1ccc2c(=O)[nH]c3ncccc3c2c1 [Compound 449, 9-(Benzyl(ethyl)amino)benzo[c][1,8]naphthyridin-6(5H)-one] | > 100 |
| O=c1[nH]c2ncccc2c2cc(NCc3ccc(Cl)cc3)ccc12 [Compound 452, 9-(4-Chlorobenzylamino)benzo[c][1,8]naphthyridin-6(5H)-one] | > 100 |
| CCOC(=O)CCCNc1ccc2c(=O)[nH]c3ncccc3c2c1 [Compound 460, Ethyl 4-(6-oxo-5,6-dihydrobenzo[c][1,8]naphthyridin-9-ylamino)butanoate] | > 100 |
| O=c1[nH]c2ncccc2c2cc(NCc3c(F)cccc3C(F)(F)F)ccc12 [Compound 461, 9-(2-Fluoro-6-(trifluoromethyl)benzylamino)benzo[c][1,8]naphthyridin-6(5H)-one] | > 100 |
| N#Cc1ccccc1CNc1ccc2c(=O)[nH]c3ncccc3c2c1 [Compound 462, 2-((6-oxo-5,6-dihydrobenzo[c][1,8]naphthyridin-9-ylamino)methyl)benzonitrile] | > 100 |
| N#Cc1cccc(CNc2ccc3c(=O)[nH]c4ncccc4c3c2)c1 [Compound 463, 3-((6-Oxo-5,6-dihydrobenzo[c][1,8]naphthyridin-9-ylamino)methyl)benzonitrile] | > 100 |
| O=c1[nH]c2ncccc2c2cc(NCc3ccc(F)cc3C(F)(F)F)ccc12 [Compound 464, 9-(4-Fluoro-2-(trifluoromethyl)benzylamino)benzo[c][1,8]naphthyridin-6(5H)-one] | > 100 |
| O=c1[nH]c2ncccc2c2cc(NCc3cccc([N+](=O)[O-])c3)ccc12 [Compound 465, 9-(3-Nitrobenzylamino)benzo[c][1,8]naphthyridin-6(5H)-one] | > 100 |
| O=c1[nH]c2ncccc2c2cc(NCc3ccccc3[N+](=O)[O-])ccc12 [Compound 466, 9-(2-Nitrobenzylamino)benzo[c][1,8]naphthyridin-6(5H)-one] | > 100 |
| O=c1[nH]c2ncccc2c2cc(NCc3cc(C(F)(F)F)ccc3C(F)(F)F)ccc12 [Compound 468, 9-(2,5-Bis(trifluoromethyl)benzylamino)benzo[c][1,8]naphthyridin-6(5H)-one] | > 100 |
| O=c1[nH]c2ncccc2c2cc(NCc3ccccc3Br)ccc12 [Compound 469, 9-(2-Bromobenzylamino)benzo[c][1,8]naphthyridin-6(5H)-one] | 11 to 100 |
| O=c1[nH]c2ncccc2c2cc(NCc3ccccc3Cl)ccc12 [Compound 470, 9-(2-Chlorobenzylamino)benzo[c][1,8]naphthyridin-6(5H)-one] | 11 to 100 |
| O=c1[nH]c2ncccc2c2cc(NCc3c(F)cccc3Cl)ccc12 [Compound 471, 9-(2-Chloro-6-fluorobenzylamino)benzo[c][1,8]naphthyridin-6(5H)-one] | > 100 |
| CN1CCCC1CCNc1ccc2c(=O)[nH]c3ncccc3c2c1 (centres unmarked) [Compound 475, 9-(2-(1-Methylpyrrolidin-2-yl)ethylamino)benzo[c][1,8]naphthyridin-6(5H)-one] | > 100 |
| O=c1[nH]c2ncccc2c2cc(NCc3ccc4c(c3)OCO4)ccc12 [Compound 476, 9-(Benzo[d][1,3]dioxol-5-ylmethylamino)benzo[c][1,8]naphthyridin-6(5H)-one] | > 100 |
| O=C1CCCN1CCCNc1ccc2c(=O)[nH]c3ncccc3c2c1 [Compound 479, 9-(3-(2-Oxopyrrolidin-1-yl)propylamino)benzo[c][1,8]naphthyridin-6(5H)-one] | > 100 |

More lines, now with the values ahead:

| IC50 [nM] | Structure (SMILES) |
| --- | --- |
| < 11 | CCOC(=O)c1cccc2c1c(=O)[nH]c1nccc(Nc3ccc(NC(=O)c4ccccc4)cc3)c12 [Compound 423, 1-[4-Benzoylamino-phenylamino)-6-oxo-5,6-dihydro-benzo[c][1,8]naphthyridin-7-carboxylic acid ethyl ester] |
| > 100 | O=C(Cn1cc(Nc2ccnc3[nH]c(=O)c4ccccc4c23)cn1)Nc1ccc(F)cc1 [Compound 430] |
| < 11 | O=C(Nc1ccc(Nc2ccnc3[nH]c(=O)c4ccccc4c23)cc1)c1cccc(F)c1F [Compound 432, 2,3-Difluoro-N-[4-(6-oxo-5,6-dihydro-benzo[c][1,8]naphthyridin-1-ylamino)-phenyl]-benzamide] |
| 11 to 100 | O=C(Nc1ccc(Nc2ccnc3[nH]c(=O)c4ccccc4c23)cc1)c1cccc2c1OCC2 [Compound 433, 2,3-Dihydro-benzofuran-7-carboxylic acid [4-(6-oxo-5,6-dihydro-benzo[c][1,8]naphthyridin-1-ylamino)-phenyl]-amide] |
| 11 to 100 | O=C(Nc1ccc(Nc2ccnc3[nH]c(=O)c4c(C(=O)O)cccc4c23)cc1)c1ccccc1 [Compound 434, 1-[4-Benzoylamino-phenylamino)-6-oxo-5,6-dihydro-benzo[c][1,8]naphthyridin-7-carboxylic acid] |
| < 11 | CN(C)CCNC(=O)c1cccc2c1c(=O)[nH]c1nccc(Nc3ccc(NC(=O)c4ccccc4)cc3)c12 [Compound 435, 1-[4-Benzoylamino-phenylamino)-6-oxo-5,6-dihydro-benzo[c][1,8]naphthyridin-7-carboxylic acid 2-dimethylamino-ethyl amide] |
| 11 to 100 | CN(C)CCCNC(=O)c1cccc2c1c(=O)[nH]c1nccc(Nc3ccc(NC(=O)c4ccccc4)cc3)c12 [Compound 436, 1-(4-Benzoylamino-phenylamino)-6-oxo-5,6-dihydro-benzo[c][1,8]naphthyridine-7-carboxylic acid (3-dimethylamino-propyl)-amide] |
| < 11 | O=C(Nc1ccc(Nc2ccnc3[nH]c(=O)c4c(C(=O)NCCCN5CCOCC5)cccc4c23)cc1)c1ccccc1 [Compound 437, 1-[4-Benzoylamino-phenylamino)-6-oxo-5,6-dihydro-benzo[c][1,8]naphthyridin-7-carboxylic acid 3-morpholin-4-yl-propyl amide] |
| < 11 | O=C(Nc1ccc(Nc2ccnc3[nH]c(=O)c4c(C(=O)NCCO)cccc4c23)cc1)c1ccccc1 [Compound 438, 1-[4-Benzoylamino-phenylamino)-6-oxo-5,6-dihydro-benzo[c][1,8]naphthyridin-7-carboxylic acid 2-hydroxy ethyl amide] |
| < 11 | O=C(Nc1ccc(Nc2ccnc3[nH]c(=O)c4c(C(=O)O)cccc4c23)cc1)c1ccc(F)cc1C(F)(F)F [Compound 439, 1-[4-(4-Fluoro-2-trifluoromethyl-benzoylamino)-phenylamino)-6-oxo-5,6-dihydro-benzo[c][1,8]naphthyridin-7-carboxylic acid] |
| < 11 | O=C(Nc1ccc(Nc2ccnc3[nH]c(=O)c4c(C(=O)NCCN5CCOCC5)cccc4c23)cc1)c1ccc(F)cc1C(F)(F)F [Compound 442, 1-[4-(4-Fluoro-2-trifluoromethyl-benzoylamino)-phenylamino]-6-oxo-5,6-dihydro-benzo[c][1,8]naphthyridine-7-carboxylic acid (2-morpholin-4-yl-ethyl)-amide] |
| < 11 | O=C(Nc1ccc(Nc2ccnc3[nH]c(=O)c4c(C(=O)NCCCN5CCOCC5)cccc4c23)cc1)c1ccc(F)cc1C(F)(F)F [Compound 443, 1-[4-(4-Fluoro-2-trifluoromethyl-benzoylamino)-phenylamino)-6-oxo-5,6-dihydro-benzo[c][1,8]naphthyridin-7-carboxylic acid 3-morpholin-4-yl-propyl amide] |
| < 11 | O=C(Nc1ccc(Nc2ccnc3[nH]c(=O)c4c(C(=O)NCCO)cccc4c23)cc1)c1ccc(F)cc1C(F)(F)F [Compound 444, 1-[4-(4-Fluoro-2-trifluoromethyl-benzoylamino)-phenylamino)-6-oxo-5,6-dihydro-benzo[c][1,8]naphthyridin-7-carboxylic acid 2-hydroxy ethyl amide] |
| 11 to 100 | O=C(Nc1ccc(Nc2ccnc3[nH]c(=O)c4c(O)cccc4c23)cc1)c1ccc(F)cc1C(F)(F)F [Compound 445, 4-Fluoro-N-[4-(7-hydroxy-6-oxo-5,6-dihydro-benzo[c][1,8]naphthyridin-1-ylamino)-phenyl]-2-trifluoromethyl-benzamide] |
| 11 to 100 | O=C(Nc1ccc(Nc2ccnc3[nH]c(=O)c4c(O)cccc4c23)cc1)c1ccccc1 [Compound 446, N-[4-(7-Hydroxy-6-oxo-5,6-dihydro-benzo[c][1,8]naphthyridin-1-ylamino)-phenyl]-benzamide] |
| 11 to 100 | O=C(Nc1ccc(Nc2ccnc3[nH]c(=O)c4c(OCCN5CCOCC5)cccc4c23)cc1)c1ccccc1 [Compound 447] |
